This note sets out measurements from patent publication US20140105948A1, “STABILITY OF PEROXIDE IN ORAL CARE COMPOSTIONS” (INTERCONTINENTAL GREAT BRANDS LLC, priority 2011, published 2014).

Data set [1] is described as follows: Stability of carbamide peroxide stored with sweeteners. The class given is physicochemical. To be noted: for % Carbamide Peroxide recovered after 4 weeks of aging with sweetener at 25 C.: carbamide peroxide stored with sweetener, four weeks; for tendency of sweetener to react with the peroxide: result in words. How it is done:
The present inventors have compared the action of certain sweeteners on the effect with carbamide peroxide, with surprising results. Carbamide peroxide was stored with three sweeteners, and stored for four weeks at 25° C. to determine stability. The three sweeteners included aspartame, acesulfame potassium and sucralose. The percentage of carbamide peroxide recovered after four weeks was measured.

The nature of data set [2]: Shelf life stability of encapsulated carbamide peroxide in chewing gum (Example 1). To be noted: without encapsulation, after two weeks of storage. It is filed as physicochemical. As to the method: The stability of various encapsulants for carbamide peroxide in chewing gum was measured. As explained above, peroxides in general are known to be problematic in the shelf life of chewing gums, as they have a tendency to break down gum base, rendering it ineffective and useless. Chewing gums including various encapsulated carbamide peroxides were prepared and were stored for eight weeks at room temperature and at 37° C. Solid carbamide peroxide was encapsulated in the following encapsulating materials: (1) ethyl cellulose (25% encapsulant weight); (2) polyvinyl acetate B30 (30% encapsulant weight); (3) gum arabic (30% encapsulant weight); (4) mannitol (30% encapsulant weight); and (5) shellac (30% encapsulant weight). These encapsulated particles were used in formulating pieces of chewing gum and were measured for shelf life stability. In addition, a control chewing gum was prepared, which included non-encapsulated (“free”) carbamide peroxide within the gum base. The amount of carbamide peroxide obtained after the study was measured. […] At room temperature after eight weeks, chewing gums including this encapsulated carbamide peroxide had approximately 95% of the carbamide peroxide remaining. Even after eight weeks at elevated temperatures, these products had approximately 80% of the carbamide peroxide remaining.

Where a name gives a salt, the structure may show the parent alone. Residues, ends and D or L forms follow the SMILES beside them.

As for `CC1=CC(=O)NS(=O)(=O)O1` [Ace-K, potassium salt of 3,4-dihydro-6-methyl-1,2,3-oxathiazine-4-one-2,2-dioxide], in data set [1], the “% Carbamide Peroxide recovered after 4 weeks of aging with sweetener at 25 C.” value (“% Carbamide Peroxide recovered” below) was determined as 92%.
Take `COC(=O)[C@H](Cc1ccccc1)NC(=O)[C@@H](N)CC(=O)O` [Aspartame, L-aspartyl-L-phenylalanine methyl ester] (H-Asp-Phe-OMe): in data set [1], the “% Carbamide Peroxide recovered” value is 78% and the “tendency of sweetener to react with the peroxide” value (“tendency of sweetener to react” below) is listed as “have a tendency to react with the peroxide”. Further, the “% Carbamide Peroxide recovered” value in data set [1] (listed as aspartame) is listed as “significant reduction”.
Consider `OC[C@H]1O[C@H](O[C@]2(CCl)O[C@H](CCl)[C@@H](O)[C@@H]2O)[C@H](O)[C@@H](O)[C@H]1Cl` [Sucralose], for which, in data set [1], the “% Carbamide Peroxide recovered” value was determined as 100% and the “tendency of sweetener to react” value is reported as “do not react with the peroxide”.
Consider `NC(N)=O.OO` [carbamide peroxide], for which, in data set [2], the “carbamide peroxide decomposed in chewing gum product” value is listed as “nearly all of the carbamide peroxide is decomposed”.
With `OCC(O)CO` [glycerin], the “tendency of sweetener to react” value in data set [1] was “have a tendency to react with the peroxide”.
Still for that read-out and setting: under `OC[C@@H](O)[C@@H](O[C@H]1O[C@H](CO)[C@@H](O)[C@H](O)[C@H]1O)[C@H](O)[C@@H](O)CO` [maltitol] stands “do not react with the peroxide”; under isomalt, “do not react with the peroxide”.
